Measured values as given in ChEMBL document CHEMBL1146205, “Isatin sulfonamide analogs containing a Michael addition acceptor: a new class of caspase 3/7 inhibitors” (J Med Chem, 2007).

Assays:
[1] = Partition coefficient of the compound, log P; type: physicochemical; details: octanol/water
Caspase-8 = Caspase-8 (Homo sapiens, UniProt Q14790); experiment: Inhibition of human recombinant caspase 8
Caspase-1 = target: T1, Caspase-1 (Homo sapiens, UniProt P29466); experiment: Inhibition of human recombinant caspase 1
T1 sequence (P29466 whole entry): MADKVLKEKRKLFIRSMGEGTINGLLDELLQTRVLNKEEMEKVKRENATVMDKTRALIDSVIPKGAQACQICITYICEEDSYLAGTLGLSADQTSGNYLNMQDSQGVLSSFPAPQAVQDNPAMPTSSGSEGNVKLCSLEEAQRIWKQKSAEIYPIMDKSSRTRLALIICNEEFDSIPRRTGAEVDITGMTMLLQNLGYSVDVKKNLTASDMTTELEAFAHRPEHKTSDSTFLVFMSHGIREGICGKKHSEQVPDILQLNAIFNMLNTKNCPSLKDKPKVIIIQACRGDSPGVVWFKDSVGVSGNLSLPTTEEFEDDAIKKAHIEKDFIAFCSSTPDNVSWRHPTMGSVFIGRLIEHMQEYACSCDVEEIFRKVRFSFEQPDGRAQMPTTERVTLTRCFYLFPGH

Caspase-6 = target: T2, Caspase-6 (Homo sapiens, UniProt P55212); experiment: Inhibition of human recombinant caspase 6
T2 sequence (P55212 whole entry): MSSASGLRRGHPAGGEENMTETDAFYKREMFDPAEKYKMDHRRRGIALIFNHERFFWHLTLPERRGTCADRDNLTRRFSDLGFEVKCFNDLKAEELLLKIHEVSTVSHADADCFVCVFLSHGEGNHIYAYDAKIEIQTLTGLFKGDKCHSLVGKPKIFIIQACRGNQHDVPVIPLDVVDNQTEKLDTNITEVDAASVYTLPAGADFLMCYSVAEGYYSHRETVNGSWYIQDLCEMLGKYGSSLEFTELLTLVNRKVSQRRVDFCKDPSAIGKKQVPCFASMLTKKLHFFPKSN

Caspase-3 = target: T3, Caspase-3 (Homo sapiens, UniProt P42574); experiment: Inhibition of human recombinant caspase 3
T3 sequence (P42574 whole entry): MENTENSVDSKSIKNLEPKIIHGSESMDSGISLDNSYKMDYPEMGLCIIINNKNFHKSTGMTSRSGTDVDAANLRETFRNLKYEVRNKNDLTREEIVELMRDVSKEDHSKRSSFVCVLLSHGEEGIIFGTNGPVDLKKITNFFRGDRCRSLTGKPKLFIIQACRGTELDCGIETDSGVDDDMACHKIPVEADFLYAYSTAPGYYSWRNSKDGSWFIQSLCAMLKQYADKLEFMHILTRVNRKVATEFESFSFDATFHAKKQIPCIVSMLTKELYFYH

Caspase-7 = target: T4, Caspase-7 (Homo sapiens, UniProt P55210); experiment: Inhibition of human recombinant caspase 7
T4 sequence (P55210 whole entry): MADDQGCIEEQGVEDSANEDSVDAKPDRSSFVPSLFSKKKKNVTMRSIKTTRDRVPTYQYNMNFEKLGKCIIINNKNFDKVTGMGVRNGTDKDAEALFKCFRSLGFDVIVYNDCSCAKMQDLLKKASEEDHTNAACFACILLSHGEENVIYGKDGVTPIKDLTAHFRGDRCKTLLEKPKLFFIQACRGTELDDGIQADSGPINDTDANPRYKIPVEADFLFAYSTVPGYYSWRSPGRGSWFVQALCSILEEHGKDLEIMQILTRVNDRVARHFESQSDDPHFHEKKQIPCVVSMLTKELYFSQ

Chain of Caspase-8 (Q14790 217-374 limits assumed): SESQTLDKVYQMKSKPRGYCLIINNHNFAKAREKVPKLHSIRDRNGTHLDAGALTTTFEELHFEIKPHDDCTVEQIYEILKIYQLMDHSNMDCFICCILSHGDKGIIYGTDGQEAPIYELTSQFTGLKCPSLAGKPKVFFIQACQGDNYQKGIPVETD
Chain of Caspase-8 (Q14790 385-479 limits assumed): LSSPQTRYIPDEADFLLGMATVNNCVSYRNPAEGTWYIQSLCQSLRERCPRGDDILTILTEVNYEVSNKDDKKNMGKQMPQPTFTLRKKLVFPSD

| SMILES | logP [1] | IC50 (Caspase-8) [µM] | IC50 (Caspase-1) [µM] | IC50 (Caspase-6) [µM] | IC50 (Caspase-3) [µM] | IC50 (Caspase-7) [µM] |
| --- | --- | --- | --- | --- | --- | --- |
| O=C1C(=O)N(Cc2ccc(OCCF)cc2)c2ccc(S(=O)(=O)N3CCC[C@H]3COc3ccccc3)cc21 | 4.19 | – | – | – | – | – |
| N#CC(C#N)=C1C(=O)N(Cc2ccccc2)c2ccc(S(=O)(=O)N3CCC[C@H]3COc3ccccc3)cc21 | 3.5 | > 50 | 6.22 | 0.918 | 0.0278 | 0.0517 |
| N#CC(C#N)=C1C(=O)N(Cc2ccccc2)c2ccc(S(=O)(=O)N3CCC[C@H]3COc3cccnc3)cc21 | 2.45 | > 50 | 3.25 | 0.823 | 0.0076 | 0.0328 |
| N#CC(C#N)=C1C(=O)N(Cc2ccc(O)cc2)c2ccc(S(=O)(=O)N3CCC[C@H]3COc3cccnc3)cc21 | 1.77 | > 50 | 2.72 | 0.65 | 0.0078 | 0.0283 |
| O=C1C(=O)N(Cc2ccc(O)cc2)c2ccc(S(=O)(=O)N3CCC[C@H]3COc3cccnc3)cc21 | 2.25 | > 50 | > 15 | 9.55 | 0.0039 | 0.0117 |
| O=C1C(=O)N(Cc2ccc(Br)cc2)c2ccc(S(=O)(=O)N3CCC[C@H]3COc3cccnc3)cc21 | 3.76 | > 50 | > 15 | 5.03 | 0.0036 | 0.0066 |
| O=C1C(=O)N(Cc2ccc(Br)cc2)c2ccc(S(=O)(=O)N3CCC[C@H]3COc3ccccc3)cc21 | 4.82 | > 50 | > 15 | 8.9 | 0.00985 | 0.0348 |
| N#CC(C#N)=C1C(=O)Nc2ccc(S(=O)(=O)N3CCC[C@H]3COc3ccccc3)cc21 | 1.07 | > 50 | 1.83 | 0.407 | 0.272 | 1.59 |
| N#CC(C#N)=C1C(=O)N(Cc2ccc(Br)cc2)c2ccc(S(=O)(=O)N3CCC[C@H]3COc3cccnc3)cc21 | 3.22 | > 50 | 3.4 | 0.515 | 0.0051 | 0.0263 |
| CN1C(=O)C(=C(C#N)C#N)c2cc(S(=O)(=O)N3CCC[C@H]3COc3ccccc3)ccc21 | 1.71 | > 50 | 2.83 | 0.698 | 0.119 | 0.785 |
| N#CC(C#N)=C1C(=O)N(Cc2ccc(O)cc2)c2ccc(S(=O)(=O)N3CCC[C@H]3COc3ccccc3)cc21 | 2.77 | > 50 | 2.3 | 0.744 | 0.0318 | 0.126 |
| COc1ccc(CN2C(=O)C(=C(C#N)C#N)c3cc(S(=O)(=O)N4CCC[C@H]4COc4cccnc4)ccc32)cc1 | 2.36 | > 50 | 3.9 | 0.61 | 0.0078 | 0.0296 |
| N#CC(C#N)=C1C(=O)N(Cc2ccc(Br)cc2)c2ccc(S(=O)(=O)N3CCC[C@H]3COc3ccccc3)cc21 | 4.28 | > 50 | 5.7 | 0.84 | 0.0201 | 0.0922 |
